Experiments:
[1] = Stability in human plasma; format: in vitro ADME; settings: 37° C.
Description: (§1) Compounds and positive control samples were dissolved in 100% DMSO at 3 mM. To investigate the stability of the test compounds in plasma, samples were made by diluting test compounds into plasma from the stock solutions to obtain a test compound concentration of 3 μM (0.1% DMSO). Before addition of a test compound, 990 μl of plasma were preincubated at 37° C. for 5 min in eppendorf. After addition of a test compound, 70 μl for each time point were transferred to a 96-deepwell plate, previously warmed at 37° C. in a DUBNOFF water bath. Each compound was tested at five time points, in duplicate (10, 20, 30, 40 and 60 min). At each time point, an aliquot of 50 μl was taken and transferred to a new 96-deepwell plate, and the reaction was stopped with 200 μl of 100% acetonitrile containing 0.1% formic acid and the appropriate internal standard. Then samples were centrifuged at 1100×g for 30 min at +4° C. and supernatants were transferred to a new 96-deepwell plate. Samples were evaporated under N2 and reconstituted in H2O/ACN 0.1% Formic Acid (98:2). Analysis was performed without a calibration curve (Acquity UPLC-Waters; SciexAPI4000). Time 0 was obtained by adding acetonitrile before addition of the test compound.

[2] = system: PANK2 silenced human neuroblastoma IMR32 cells (PANK2−/−); assay: Coenzyme A assay in PANK2 silenced cells (LC-MS quantification of free CoA); format: cell-based; settings: compound added twice (24 h + 24 h), relative to 0.1% DMSO controls
Method in brief: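 Free intracellular CoA was measured by positive-mode LC-MS/MS of 20% TFA extracts, taking 2 μl per 10^6 cells as intracellular volume. Cells were IMR32 with stable lentiviral PANK2 knockdown, dosed twice 24 h apart (48 h total, 0.1% DMSO). Output is fold increase over vehicle.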

[3] = Stability in mouse plasma; format: in vitro ADME
Description: as §1

[4] = human, plasma, Diastereoisomer A (upfield shift in 31P NMR), read-out: t1/2, Human Plasma, Diastereoisomer A (converted)
[5] = human, plasma, Diastereoisomer B, read-out: t1/2, Human Plasma, Diastereoisomer B (converted)

SMILES | half-life at 3 µM [1, 4] | PANK2−/− CoA (Fold Increase): fold increase in Coenzyme A (CoA) levels relative to controls [2] | half-life at 3 µM ([3]; mouse, plasma) | half-life at 3 µM [1, 5] | t1/2, Mouse Plasma, Diastereoisomer B ([3]; mouse, plasma, 3 µM) | half-life at 3 µM ([1]; Diastereoisomer A (upfield shift in 31P NMR), read-out: t1/2, Human Plasma, Diastereoisomer A (converted)) | t1/2, Human Plasma, Diastereoisomer B ([1]; Diastereoisomer B, 3 μM) | half-life at 3 µM ([3]; Diastereoisomer A (upfield shift in 31P NMR), 3 μM, 37° C., mouse plasma, read-out: t1/2, Mouse Plasma, Diastereoisomer A) | t1/2, Mouse Plasma, Diastereoisomer B ([3]; Diastereoisomer B, 3 μM, 37° C., mouse plasma)
COC(=O)CCNC(=O)[C@@H]1OP(=O)(OCOC(=O)CN2CCN(C(C)=O)CC2)OCC1(C)C (stereo partly drawn) [compound 80, methyl 3-((4R)-2-((2-(4-acetylpiperazin-1-yl)acetoxy)methoxy)-5,5-dimethyl-2-oxido-1,3,2-dioxaphosphinane-4-carboxamido)propanoate] | 40.2 min | 1.48 Fold Increase | < 9.6 min |  |  |  |  |  | 
COC(=O)CCNC(=O)[C@@H]1OP(=O)(OCOC(=O)C2(C(N)=O)CC2)OCC1(C)C (stereo partly drawn) [Compound No. 83, (((4R)-4-((3-methoxy-3-oxopropyl)carbamoyl)-5,5-dimethyl-2-oxido-1,3,2-dioxaphosphinan-2-yl)oxy)methyl 1-carbamoylcyclopropane-1-carboxylate] | > 60 min | 12.02 Fold Increase | < 9.6 min | < 9.6 min | <9.6 min |  |  |  | 
COC(=O)CCNC(=O)[C@@H]1OP(=O)(N[C@@H](Cc2cccnc2)C(=O)OCc2ccccc2)OCC1(C)C (stereo partly drawn) [compound 30, (2S)-benzyl 2-(((4R)-4-((3-methoxy-3-oxopropyl)carbamoyl)-5,5-dimethyl-2-oxido-1,3,2-dioxaphosphinan-2-yl)amino)-3-(pyridin-3-yl)propanoate] | 49.8 min | 0.93 Fold Increase | < 9.6 min | > 60 min | <9.6 min |  |  |  | 
COC(=O)CCNC(=O)[C@@H]1OP(=O)(NCCN2CCOCC2)OCC1(C)C (stereo partly drawn) [compound 126, methyl 3-((4R)-5,5-dimethyl-2-((2-morpholinoethyl)amino)-2-oxido-1,3,2-dioxaphosphinane-4-carboxamido)propanoate] |  | 1.33 Fold Increase |  |  |  | > 60 min | >60 min | < 9.6 min | <9.6 min
COC(=O)CCNC(=O)[C@@H]1OP(=O)(OCOC(=O)[C@H](CC(C)C)NC(C)=O)OCC1(C)C (stereo partly drawn) [Compound No. 73, (((4R)-4-((3-methoxy-3-oxopropyl)carbamoyl)-5,5-dimethyl-2-oxido-1,3,2-dioxaphosphinan-2-yl)oxy)methyl acetyl-L-leucinate] | < 13.8 min | 6.92 Fold Increase | < 9.6 min | < 9.6 min | <9.6 min |  |  |  | 
CC(C)(C)C(=O)OCO[P@@]1(=O)OCC(C)(C)[C@H](C(=O)NCCC(=O)OCC2CCC(=O)N2)O1 (stereo partly drawn) [Compound No. 2-113, (((2S,4R)-5,5-dimethyl-2-oxido-4-((3-oxo-3-((5-oxopyrrolidin-2-yl)methoxy)propyl)carbamoyl)-1,3,2-dioxaphosphinan-2-yl)oxy)methyl pivalate] | 33.6 min | 7.93 Fold Increase | < 9.6 min |  |  |  |  |  | 
Cc1cc(COC(=O)CCNC(=O)[C@@H]2OP(=O)(OCOC(=O)C(C)(C)C)OCC2(C)C)no1 (single isomer, unassigned) [Compound No. 74] | 46.8 min | 176 Fold Increase | < 9.6 min | < 9.6 min | <9.6 min |  |  |  | 
COC(=O)CCNC(=O)[C@@H]1OP(=O)(OCCc2cccnc2)OCC1(C)C (stereo partly drawn) [compound 61, methyl 3-((4R)-5,5-dimethyl-2-oxido-2-(2-(pyridin-3-yl)ethoxy)-1,3,2-dioxaphosphinane-4-carboxamido)propanoate] | > 60 min | 1.93 Fold Increase | < 9.6 min | > 60 min | <9.6 min |  |  |  | 
CC(C)(C)C(=O)OCOP1(=O)OCC(C)(C)[C@H](C(=O)NCCC(=O)OCc2ncccn2)O1 (stereo partly drawn) [Compound No. 95, (((4R)-5,5-dimethyl-2-oxido-4-((3-oxo-3-(pyrimidin-2-ylmethoxy)propyl)carbamoyl)-1,3,2-dioxaphosphinan-2-yl)oxy)methyl pivalate] | > 60 min | 54.03 Fold Increase | < 9.6 min | < 9.6 min | <9.6 min |  |  |  | 
COC(=O)CCNC(=O)[C@@H]1OP(=O)(N[C@H](C)C(=O)OCCc2scnc2C)OCC1(C)C (stereo partly drawn) [compound 32, methyl 3-((4R)-5,5-dimethyl-2-(((R)-1-(2-(4-methylthiazol-5-yl)ethoxy)-1-oxopropan-2-yl)amino)-2-oxido-1,3,2-dioxaphosphinane-4-carboxamido)propanoate] | > 60 min | 1.49 Fold Increase | < 9.6 min | > 60 min | <9.6 min |  |  |  | 
C[C@H](NP1(=O)OCC(C)(C)[C@H](C(=O)NCCC(=O)OC(C)(C)C)O1)C(=O)OCCc1ccccc1 (stereo partly drawn) [compound 33, tert-butyl 3-((4R)-5,5-dimethyl-2-oxido-2-(((S)-1-oxo-1-phenethoxypropan-2-yl)amino)-1,3,2-dioxaphosphinane-4-carboxamido)propanoate] | > 60 min | 0.8 Fold Increase | < 9.6 min | > 60 min | <9.6 min |  |  |  | 
COC(=O)CCNC(=O)[C@@H]1OP(=O)(N[C@H](C)C(=O)OCc2cccnc2)OCC1(C)C (stereo partly drawn) [compound 28, methyl 3-((4R)-5,5-dimethyl-2-oxido-2-(((R)-1-oxo-1-(pyridin-3-ylmethoxy)propan-2-yl)amino)-1,3,2-dioxaphosphinane-4-carboxamido)propanoate] | > 60 min | 0.87 Fold Increase | < 9.6 min | 39 min | <9.6 min |  |  |  | 
COC(=O)CCNC(=O)[C@@H]1OP(=O)(OCOC(=O)OC(C)(C)C)OCC1(C)C (stereo partly drawn) [compound 88, methyl 3-((4R)-2-(((tert-butoxycarbonyl)oxy)methoxy)-5,5-dimethyl-2-oxido-1,3,2-dioxaphosphinane-4-carboxamido)propanoate] | 42.6 min | 2.66 Fold Increase | < 9.6 min | 21.6 min | <9.6 min |  |  |  | 
COC(=O)CCNC(=O)[C@@H]1OP(=O)(OCOC(=O)c2cnccn2)OCC1(C)C (stereo partly drawn) [compound 86, (((4R)-4-((3-methoxy-3-oxopropyl)carbamoyl)-5,5-dimethyl-2-oxido-1,3,2-dioxaphosphinan-2-yl)oxy)methyl pyrazine-2-carboxylate] | < 9.6 min | 2.45 Fold Increase | < 9.6 min | < 9.6 min | <9.6 min |  |  |  | 
COC(=O)CCNC(=O)[C@@H]1OP(=O)(OCOC(=O)c2ccncc2)OCC1(C)C (stereo partly drawn) [Compound No. 72, (((4R)-4-((3-methoxy-3-oxopropyl)carbamoyl)-5,5-dimethyl-2-oxido-1,3,2-dioxaphosphinan-2-yl)oxy)methyl isonicotinate] | < 9.6 min | 34.64 Fold Increase | < 9.6 min | < 9.6 min | <9.6 min |  |  |  | 
COC(=O)CCNC(=O)[C@@H]1OP(=O)(N[C@@H](C)C(=O)OCCN2CCOCC2)OCC1(C)C (stereo partly drawn) [compound 27, methyl 3-((4R)-5,5-dimethyl-2-(((S)-1-(2-morpholinoethoxy)-1-oxopropan-2-yl)amino)-2-oxido-1,3,2-dioxaphosphinane-4-carboxamido)propanoate] | > 60 min | 1.49 Fold Increase | < 9.6 min |  |  |  |  |  | 
CC(C)(C)C(=O)OCO[P@@]1(=O)OCC(C)(C)[C@H](C(=O)NCCC(=O)OC2CCN(Cc3ccccc3)C2)O1 (stereo partly drawn) [Compound No. 93, (((2S,4R)-4-((3-((1-benzylpyrrolidin-3-yl)oxy)-3-oxopropyl)carbamoyl)-5,5-dimethyl-2-oxido-1,3,2-dioxaphosphinan-2-yl)oxy)methyl pivalate] | > 60 min | 206.8 Fold Increase | < 9.6 min |  |  |  |  |  | 

From patent US10364263B2, “Cyclic phosphates and cyclic phosphoramidates for the treatment of neurologic disorders” (Retrophin, Inc., priority 2015, dated 2019)
